Data taken from patent publication US9309242B2, “Substituted pyrido[2,3-b]pyrazines as FGFR kinase inhibitors” (priority 2011, dated 2016).

Tests used:
FGFR2 (h) = FGFR2 (h) (Homo sapiens, UniProt P21802); test: FGFR2 (enzymatic assay), TR-FRET; format: biochemical; conditions: enzymatic assay; read-out: FGFR 2 pIC50 (converted)
Procedure, shortened: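 hFGFR2 150 ng/ml; Btn-Flt3 500 nM; ATP 0.4 μM; 50 mM HEPES pH 7.5, 6 mM MnCl2, 1 mM DTT, 0.1 mM Na3VO4, 0.01% Triton-X-100; 1% DMSO final.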

FGFR3 (h) = FGFR3 (h) (Homo sapiens, UniProt P22607); test: FGFR3 (enzymatic assay), TR-FRET; format: biochemical; conditions: read-out: FGFR 3 pIC50 (converted)
Excerpt: Time-Resolved Fluorescence Resonance Energy Transfer (TR-FRET) signal (ex340 nm.

FGFR4 (h) = FGFR4 (h) (Homo sapiens, UniProt P22455); test: FGFR4 (enzymatic assay), TR-FRET; format: biochemical; conditions: FGFR 4 pIC50, enzymatic assay
KDR (h) = KDR (h) (Homo sapiens, UniProt P35968); test: KDR (VEGFR2) (enzymatic assay), TR-FRET; format: biochemical; conditions: read-out: VEGFR 2 (KDR) pIC50 (converted)
Procedure, shortened: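 TR-FRET readout (ex 340, em 620/655 nm) in RFU after EDTA stop with Eu-anti-phosphotyrosine and SA-XL665 for 60 min. The preceding 120-min room-temperature kinase step used 150 ng/ml KDR (h), 3 μM ATP, 500 nM biotinylated Flt3 peptide, MnCl2-containing HEPES buffer pH 7.5, 1% DMSO.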

[1] = target: T1, Ba/F3-FGFR1-transfected cells (Homo sapiens, UniProt P11362); test: Ba/F3-FGFR1 (minus IL3) cellular proliferation assay, Alamar Blue; format: cell-based
T1 construct: BAF3-FGFR1 (MIN IL3) pIC50; other: minus IL3
Procedure, shortened: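 Compound is dispensed first, then FGFR1-transfected Ba/F3 cells are added at 20000 per well in phenol red-free RPMI-1640 containing 10% FBS. After 24 h at 37 °C, Alamar Blue is added for 4 h and fluorescence is measured at 540/590 nm.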

[2] = system: Ba/F3-FGFR1-transfected cells; test: Ba/F3-FGFR1 (plus IL3) cellular proliferation assay, counterscreen with 10 ng/ml murine IL3; format: cell-based; conditions: plus IL3 (10 ng/ml murine IL3, counterscreen); read-out: BAF3-FGFR1 (PLUS IL3) pIC50 (converted)
Procedure, shortened: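 Proliferation read-out: resazurin-based Alamar Blue fluorescence (540/590 nm) after 4 h, following 24 h compound treatment of 20000 Ba/F3-FGFR1 cells per well in 10% FBS RPMI at 37° C. IL3 counterscreen used the same protocol plus 10 ng/ml murine IL3.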

[3] = target: T2, Ba/F3-FGFR3-transfected cells (Homo sapiens, UniProt P22607); test: Ba/F3-FGFR3 (minus IL3) cellular proliferation assay, Alamar Blue; format: cell-based
T2 construct: BAF3-FGFR3 (MIN IL3) pIC50; other: minus IL3
Procedure, shortened: (§1)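 Compound dilutions were dispensed first, then 20000 FGFR3-transfected Ba/F3 cells per well in serum-containing RPMI-1640 were added. After 24 h incubation at 37° C, Alamar Blue was applied for 4 h before relative fluorescence units were recorded. In the minus-IL3 format cells grow without cytokine; the other format contains 10 ng/ml murine IL3.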

[4] = system: Ba/F3-FGFR3-transfected cells; test: Ba/F3-FGFR3 (plus IL3) cellular proliferation assay, counterscreen with 10 ng/ml murine IL3; format: cell-based; conditions: plus IL3 (10 ng/ml murine IL3, counterscreen); read-out: BAF3-FGFR3 (PLUS IL3) pIC50 (converted)
Procedure, shortened: as §1

[5] = system: Ba/F3-KDR-transfected cells; test: Ba/F3-KDR (plus IL3) cellular proliferation assay, counterscreen with 10 ng/ml murine IL3; format: cell-based; conditions: plus IL3 (10 ng/ml murine IL3, counterscreen); read-out: BAF3-KDR (PLUS IL3) pIC50 (converted)
Procedure, shortened: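 Proliferation read-out by Alamar Blue fluorescence (ex. 540 nm, em. 590 nm) after 4 hours, following 24 hours of compound treatment at 37° C of 20000 Ba/F3-KDR cells per well in RPMI-1640/10% FBS. Same protocol with 10 ng/ml murine IL3 serves as counterscreen.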

T1 sequence (P11362 whole entry, change not shown): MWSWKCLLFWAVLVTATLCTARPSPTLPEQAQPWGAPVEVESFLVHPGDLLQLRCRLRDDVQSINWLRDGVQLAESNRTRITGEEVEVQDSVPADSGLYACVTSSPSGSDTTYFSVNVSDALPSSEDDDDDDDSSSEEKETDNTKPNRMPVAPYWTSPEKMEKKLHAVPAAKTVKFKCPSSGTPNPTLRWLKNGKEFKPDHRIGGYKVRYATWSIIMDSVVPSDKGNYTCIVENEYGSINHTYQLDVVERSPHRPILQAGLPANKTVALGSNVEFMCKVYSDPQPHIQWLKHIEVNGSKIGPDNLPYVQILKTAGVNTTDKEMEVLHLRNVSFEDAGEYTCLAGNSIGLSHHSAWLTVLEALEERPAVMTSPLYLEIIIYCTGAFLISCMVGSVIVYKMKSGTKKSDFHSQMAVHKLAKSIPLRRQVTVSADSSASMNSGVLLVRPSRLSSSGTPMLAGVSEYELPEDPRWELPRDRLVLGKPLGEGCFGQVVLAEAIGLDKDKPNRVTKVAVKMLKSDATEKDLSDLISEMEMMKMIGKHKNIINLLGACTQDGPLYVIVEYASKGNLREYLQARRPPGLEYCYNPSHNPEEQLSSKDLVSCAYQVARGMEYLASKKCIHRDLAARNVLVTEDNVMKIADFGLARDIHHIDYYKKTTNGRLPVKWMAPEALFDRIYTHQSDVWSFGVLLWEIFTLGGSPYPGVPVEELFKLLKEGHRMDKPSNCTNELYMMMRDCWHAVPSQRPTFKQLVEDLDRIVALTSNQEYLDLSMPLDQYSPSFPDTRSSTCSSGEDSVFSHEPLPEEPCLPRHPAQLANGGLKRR
Chain of FGFR4 (h) (P22455 22-802): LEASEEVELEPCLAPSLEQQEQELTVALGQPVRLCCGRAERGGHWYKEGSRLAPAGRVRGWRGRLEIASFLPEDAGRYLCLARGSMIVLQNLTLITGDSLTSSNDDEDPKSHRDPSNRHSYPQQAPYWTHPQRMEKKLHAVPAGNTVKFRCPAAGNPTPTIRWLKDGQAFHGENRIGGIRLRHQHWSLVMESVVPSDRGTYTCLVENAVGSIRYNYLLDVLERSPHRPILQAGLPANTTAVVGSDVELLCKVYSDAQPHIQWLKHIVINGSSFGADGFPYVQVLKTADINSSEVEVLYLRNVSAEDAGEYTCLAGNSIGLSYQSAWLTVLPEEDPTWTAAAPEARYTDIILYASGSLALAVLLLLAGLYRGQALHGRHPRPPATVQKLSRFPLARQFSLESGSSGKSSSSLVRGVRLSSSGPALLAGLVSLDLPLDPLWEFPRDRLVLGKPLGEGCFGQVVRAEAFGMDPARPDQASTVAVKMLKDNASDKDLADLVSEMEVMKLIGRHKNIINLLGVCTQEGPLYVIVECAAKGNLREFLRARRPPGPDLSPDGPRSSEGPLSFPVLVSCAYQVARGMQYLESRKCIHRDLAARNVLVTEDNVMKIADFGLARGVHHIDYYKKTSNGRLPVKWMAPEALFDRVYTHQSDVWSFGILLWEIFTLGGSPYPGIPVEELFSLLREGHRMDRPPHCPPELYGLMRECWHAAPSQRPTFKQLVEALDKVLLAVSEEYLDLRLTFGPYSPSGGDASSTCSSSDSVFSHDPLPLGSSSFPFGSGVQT
Chain of FGFR3 (h) (P22607 23-806): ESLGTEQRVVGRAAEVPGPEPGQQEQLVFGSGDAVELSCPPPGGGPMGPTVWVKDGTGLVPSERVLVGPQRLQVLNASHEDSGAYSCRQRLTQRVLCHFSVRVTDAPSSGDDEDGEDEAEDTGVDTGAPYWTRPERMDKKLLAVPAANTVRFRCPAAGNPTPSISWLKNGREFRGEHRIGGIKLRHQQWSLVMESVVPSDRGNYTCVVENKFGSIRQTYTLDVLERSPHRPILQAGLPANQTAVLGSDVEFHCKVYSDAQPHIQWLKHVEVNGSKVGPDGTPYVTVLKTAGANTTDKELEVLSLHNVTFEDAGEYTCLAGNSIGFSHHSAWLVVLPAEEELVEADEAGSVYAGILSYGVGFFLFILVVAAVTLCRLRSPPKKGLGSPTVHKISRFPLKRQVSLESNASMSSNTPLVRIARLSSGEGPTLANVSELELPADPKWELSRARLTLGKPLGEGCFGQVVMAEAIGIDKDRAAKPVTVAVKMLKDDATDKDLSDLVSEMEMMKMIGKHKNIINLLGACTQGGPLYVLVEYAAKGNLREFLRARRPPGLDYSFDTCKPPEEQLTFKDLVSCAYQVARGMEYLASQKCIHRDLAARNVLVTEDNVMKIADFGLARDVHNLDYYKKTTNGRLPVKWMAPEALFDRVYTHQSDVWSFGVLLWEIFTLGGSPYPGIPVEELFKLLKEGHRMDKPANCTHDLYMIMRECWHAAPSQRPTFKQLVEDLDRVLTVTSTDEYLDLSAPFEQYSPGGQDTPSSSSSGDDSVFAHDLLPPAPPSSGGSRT
Chain of FGFR2 (h) (P21802 22-821): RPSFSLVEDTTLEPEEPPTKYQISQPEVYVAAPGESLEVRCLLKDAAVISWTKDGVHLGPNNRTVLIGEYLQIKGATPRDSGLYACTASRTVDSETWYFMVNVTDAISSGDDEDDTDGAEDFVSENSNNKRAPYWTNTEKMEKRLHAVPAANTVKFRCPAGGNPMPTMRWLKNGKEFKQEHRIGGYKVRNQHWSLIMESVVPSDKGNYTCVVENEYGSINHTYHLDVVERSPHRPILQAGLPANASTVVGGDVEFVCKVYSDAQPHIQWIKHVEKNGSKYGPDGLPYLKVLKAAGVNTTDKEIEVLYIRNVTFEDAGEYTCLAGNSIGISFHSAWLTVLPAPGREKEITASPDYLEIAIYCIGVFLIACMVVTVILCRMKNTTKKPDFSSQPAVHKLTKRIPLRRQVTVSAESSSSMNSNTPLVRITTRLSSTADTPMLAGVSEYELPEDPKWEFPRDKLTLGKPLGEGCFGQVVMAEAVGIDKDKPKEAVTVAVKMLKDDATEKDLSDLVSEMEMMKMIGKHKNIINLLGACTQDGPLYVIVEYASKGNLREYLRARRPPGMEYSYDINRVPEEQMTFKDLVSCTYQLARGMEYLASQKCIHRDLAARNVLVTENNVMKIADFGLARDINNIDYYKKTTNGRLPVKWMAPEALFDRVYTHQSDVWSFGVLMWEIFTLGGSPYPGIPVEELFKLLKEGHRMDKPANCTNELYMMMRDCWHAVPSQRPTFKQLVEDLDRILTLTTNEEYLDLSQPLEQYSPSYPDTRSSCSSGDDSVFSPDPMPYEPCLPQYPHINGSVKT
T2 sequence (P22607 whole entry, change not shown): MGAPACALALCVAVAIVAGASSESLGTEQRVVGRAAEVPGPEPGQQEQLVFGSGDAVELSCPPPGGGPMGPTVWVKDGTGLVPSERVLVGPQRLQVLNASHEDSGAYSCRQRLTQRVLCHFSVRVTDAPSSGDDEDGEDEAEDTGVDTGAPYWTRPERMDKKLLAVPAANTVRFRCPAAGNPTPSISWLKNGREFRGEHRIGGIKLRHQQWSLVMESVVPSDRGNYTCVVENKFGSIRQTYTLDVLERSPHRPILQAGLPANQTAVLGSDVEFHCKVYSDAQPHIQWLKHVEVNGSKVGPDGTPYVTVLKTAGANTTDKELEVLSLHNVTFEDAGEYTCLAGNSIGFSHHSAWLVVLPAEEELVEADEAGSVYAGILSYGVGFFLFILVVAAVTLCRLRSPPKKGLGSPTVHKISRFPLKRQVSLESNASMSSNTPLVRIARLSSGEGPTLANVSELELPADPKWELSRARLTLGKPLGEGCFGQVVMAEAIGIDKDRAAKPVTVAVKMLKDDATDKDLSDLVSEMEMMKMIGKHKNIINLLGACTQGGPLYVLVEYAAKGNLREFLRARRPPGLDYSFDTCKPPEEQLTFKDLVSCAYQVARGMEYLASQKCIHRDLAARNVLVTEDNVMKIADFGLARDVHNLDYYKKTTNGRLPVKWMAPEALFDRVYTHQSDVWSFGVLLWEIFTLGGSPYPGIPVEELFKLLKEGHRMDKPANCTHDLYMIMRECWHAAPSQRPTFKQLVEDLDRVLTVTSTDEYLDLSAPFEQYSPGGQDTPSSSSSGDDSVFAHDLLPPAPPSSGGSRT

| SMILES | IC50 (FGFR2 (h)) | IC50 (FGFR3 (h)) | IC50 (FGFR4 (h)) | IC50 (KDR (h)) | BAF3-FGFR1 (MIN IL3) pIC50 [1] | IC50 [2] | BAF3-FGFR3 (MIN IL3) pIC50 [3] | IC50 [4] | IC50 [5] |
| --- | --- | --- | --- | --- | --- | --- | --- | --- | --- |
| COc1cc(OC)cc(N(Cc2nnc(NCCO)o2)c2ccc3ncc(-c4cnn(C)c4)nc3n2)c1 [Compound 282] | 19.1 nM | 25.7 nM | 105 nM | 661 nM | <5 | > 10000 nM | <5 | > 10000 nM | > 10000 nM |
| COc1cc(/N=c2\ccc3ncc(-c4cnn(C)c4)nc3n2CC(C)(C)O)c(F)c(OC)c1 [Compound 246] | 1.51 nM | 0.794 nM | 2.09 nM | 7.59 nM | 7.25 | > 10000 nM | 7.53 | > 10000 nM | > 10000 nM |
| COc1cc(OC)cc(N(Cc2c[nH]nn2)c2ccc3ncc(-c4cnn(C)c4)nc3n2)c1 [Compound 251] | 1.41 nM | 0.661 nM | 2.69 nM | 26.3 nM | 6.99 | > 10000 nM | ~7.6 | > 10000 nM | > 10000 nM |
| COc1cc(OC)c(F)c(N(CC2CCC(=O)N2)c2ccc3ncc(-c4cnn(CC(C)(C)O)c4)nc3n2)c1 (stereo not drawn) [Compound 285] | 4.07 nM | 2.75 nM | 7.24 nM | 35.5 nM | 6.38 | > 10000 nM | 6.84 | > 10000 nM | > 10000 nM |
| COc1cc(OC)c(F)c(N(CC2CCC(=O)N2)c2ccc3ncc(-c4cnn(C5CNC5)c4)nc3n2)c1 (stereo not drawn) [Compound 299] | 4.68 nM | 3.55 nM | 8.91 nM | 120 nM | 6.05 | > 10000 nM | 5.94 | > 10000 nM | > 10000 nM |
| COc1cc(OC)c(F)c(/N=c2\ccc3ncc(-c4cnn(C)c4)nc3n2CC2CC2)c1F (single isomer, unassigned) [Compound 267] | 4.27 nM | 2.4 nM | 1.48 nM | 12.6 nM | 7.98 | > 10000 nM | 8.16 | > 10000 nM | > 10000 nM |
| COc1cc(OC)c(F)c(N(Cc2ncc[nH]2)c2ccc3ncc(-c4cnn(C5COC5)c4)nc3n2)c1 [Compound 253] | 1.82 nM | 1.35 nM | 1.91 nM | 12 nM | 8.61 | > 10000 nM | ~8.63 | > 10000 nM | > 10000 nM |
| COc1cc(/N=c2\ccc3ncc(-c4cnn(C)c4)nc3n2CC(C)(C)O)cc(OC)c1 [Compound 277] | 2.09 nM | 1.07 nM | 4.68 nM | 15.1 nM | 6.91 | > 10000 nM | 7.16 | > 10000 nM | > 10000 nM |
| COc1cc(OC)c(F)c(N(CC(C)(C)O)c2ccc3ncc(-c4cnn(C)c4)nc3n2)c1F [Compound 278] | 4.17 nM | 2.95 nM | 4.9 nM | 15.8 nM | 7.45 | > 10000 nM | 7.73 | > 10000 nM | > 10000 nM |
| COc1cc(/N=c2\ccc3ncc(-c4cnn(C)c4)nc3n2CC2CCC(=O)N2CCO)c(F)c(OC)c1 (stereo not drawn) [Compound 247] | 2.34 nM | 1.32 nM | 1.82 nM | 12 nM | 7.51 | > 10000 nM | ~7.7 | > 10000 nM | > 10000 nM |
| COc1cc(OC)cc(N(c2ccc3ncc(-c4cnn(C)c4)nc3n2)C(C)c2ncc[nH]2)c1 (stereo not drawn) [Compound 280] | 2.04 nM | 1.86 nM | 2.34 nM | 31.6 nM | 8.64 | > 10000 nM | ~8.63 | > 10000 nM | > 10000 nM |
| COCC(O)Cn1/c(=N/c2cc(OC)cc(OC)c2F)ccc2ncc(-c3cnn(C)c3)nc21 (single isomer, unassigned) [Compound 60] | 1 nM | 0.525 nM | 0.724 nM | 8.91 nM | 8.43 | > 10000 nM | 8.15 | > 10000 nM | > 10000 nM |
| COc1cc(OC)c(F)c(N(CC(C)(C)O)c2ccc3ncc(-c4cnn(C)c4)nc3n2)c1 [Compound 245] | 4.47 nM | 3.31 nM | 15.8 nM | 60.3 nM | 6.86 | > 10000 nM | 7.07 | > 10000 nM | > 10000 nM |
| COc1cc(OC)c(F)c(N(CC2CC(O)C(=O)N2)c2ccc3ncc(-c4cnn(C)c4)nc3n2)c1 (stereo not drawn) [Compound 269] | 3.24 nM | 2.14 nM | 3.09 nM | 74.1 nM | 6.72 | > 10000 nM | ~7.1 | > 10000 nM | > 10000 nM |
| COc1cc(OC)c(F)c(N(CC2CC2)c2ccc3ncc(-c4cnn(C)c4)nc3n2)c1F (single isomer, unassigned) [Compound 268] | 2.82 nM | 1.86 nM | 2.57 nM | 12 nM | 7.44 | > 10000 nM | 7.74 | > 10000 nM | > 10000 nM |
| COc1cc(OC)cc(N(CCS(C)(=O)=O)c2ccc3ncc(-c4cnn(CCS(C)(=O)=O)c4)nc3n2)c1 [Compound 275] | 3.47 nM | 3.39 nM | 12 nM | 141 nM | 5.64 | > 10000 nM | 5.80 | > 10000 nM | > 10000 nM |
| COc1cc(OC)c(F)c(N(C)c2ccc3ncc(-c4cnn(C)c4)nc3n2)c1F (single isomer, unassigned) [Compound 254] | 1.05 nM | 0.437 nM | 1 nM | 14.1 nM | 7.67 | > 10000 nM | 8.08 | > 10000 nM | > 10000 nM |
| COc1cc(OC)c(F)c(N(CCS(C)(=O)=O)c2ccc3ncc(-c4cnn(CCS(C)(=O)=O)c4)nc3n2)c1 [Compound 266] | 2.24 nM | 1.7 nM | 4.27 nM | 34.7 nM | 6.29 | > 10000 nM | 6.35 | > 10000 nM | > 10000 nM |
| COc1cc(/N=c2\ccc3ncc(-c4cnn(C)c4)nc3n2CC2CC(O)C(=O)N2)c(F)c(OC)c1 (stereo not drawn) [Compound 270] | 2.09 nM | 1.1 nM | 2.29 nM | 6.46 nM | 7.12 | > 10000 nM | 7.00 | > 10000 nM | > 10000 nM |
| COc1cc(OC)c(F)c(N(Cc2ncc[nH]2)c2ccc3ncc(-c4cnn(CCS(C)(=O)=O)c4)nc3n2)c1 [Compound 264] | 1.86 nM | 1.41 nM | 1.38 nM | 9.33 nM | 7.66 | > 10000 nM | 8.09 | > 10000 nM | > 10000 nM |
